Data reported in patent US20040019091A1, “Triazole derivatives and pharmaceutical compositions comprising them” (priority 2000, published 2004).

Key:
human CCK1 receptor = molecular target: T1, human CCK1 receptor (Homo sapiens, UniProt P32238); assay: in vitro binding to CCK1 receptor ([125I]-CCK displacement)
T1 construct: expressed in transfected cells; host or cells: 3T3 cells
T1 sequence (P32238 1-428): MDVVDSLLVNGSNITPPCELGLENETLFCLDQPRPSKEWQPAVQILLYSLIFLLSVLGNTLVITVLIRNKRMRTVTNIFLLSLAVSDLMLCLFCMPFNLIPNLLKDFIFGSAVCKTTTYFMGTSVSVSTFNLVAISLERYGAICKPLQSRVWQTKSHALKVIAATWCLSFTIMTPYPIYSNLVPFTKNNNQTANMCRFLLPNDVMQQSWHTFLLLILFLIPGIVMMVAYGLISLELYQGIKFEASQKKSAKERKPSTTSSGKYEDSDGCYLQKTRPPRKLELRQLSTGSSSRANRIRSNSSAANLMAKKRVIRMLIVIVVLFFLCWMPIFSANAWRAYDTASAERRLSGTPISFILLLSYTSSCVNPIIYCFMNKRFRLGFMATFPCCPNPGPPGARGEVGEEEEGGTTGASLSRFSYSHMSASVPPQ
Description: their potentiality for displacing [^125I]-CCK from its binding sites present in rat pancreatic membranes (CCK1 receptor) or 3T3 cells expressing recombinant human CCK1 receptor;
(§1) The compounds of formula (I) underwent studies of in vitro binding to CCK1 and CCK2 receptors, using the method described in Europ. J. Pharmacol., 1993, 232, 13-19. […] The agonist activity of the compounds towards CCK1 receptors was evaluated in vitro in 3T3 cells expressing the human CCK1 receptor, by measuring the mobilization of the intracellular calcium ([Ca^++]i), according to a technique derived from that of Lignon M F et al., Eur. J. Pharmacol., 1993, 245, 241-245. The calcium concentration [Ca^++]i is evaluated with Fura-2 by the double excitation wavelength method. The ratio of the fluorescence emitted at two wavelengths gives the concentration of [Ca^++]i, after calibration (Grynkiewiez G. et al., J. Biol. Chem., 1985, 260, 3440-3450).

[1] = molecular target: T2, 3T3 cells expressing the human CCK1 receptor (Homo sapiens, UniProt P32238); assay: mobilization of intracellular calcium ([Ca++]i), Fura-2; format: cell-based; conditions: read-out: EC50 [Ca++]i release
T2 construct: expressed in transfected cells; host or cells: 3T3 cells
T2 sequence (P32238 1-428): T1 sequence (P32238 1-428)
Description: their CCK1 receptor agonist property, by way of their capacity to induce mobilization of intracellular calcium in vitro in 3T3 cells expressing the human CCK1 receptor;
as §1

human CCK2 receptor = molecular target: T3, human CCK2 receptor (Homo sapiens, UniProt P32239); assay: in vitro binding to CCK2 receptor; conditions: read-out: IC50 (affinity, human CCK2 receptor)
T3 sequence (P32239 1-447): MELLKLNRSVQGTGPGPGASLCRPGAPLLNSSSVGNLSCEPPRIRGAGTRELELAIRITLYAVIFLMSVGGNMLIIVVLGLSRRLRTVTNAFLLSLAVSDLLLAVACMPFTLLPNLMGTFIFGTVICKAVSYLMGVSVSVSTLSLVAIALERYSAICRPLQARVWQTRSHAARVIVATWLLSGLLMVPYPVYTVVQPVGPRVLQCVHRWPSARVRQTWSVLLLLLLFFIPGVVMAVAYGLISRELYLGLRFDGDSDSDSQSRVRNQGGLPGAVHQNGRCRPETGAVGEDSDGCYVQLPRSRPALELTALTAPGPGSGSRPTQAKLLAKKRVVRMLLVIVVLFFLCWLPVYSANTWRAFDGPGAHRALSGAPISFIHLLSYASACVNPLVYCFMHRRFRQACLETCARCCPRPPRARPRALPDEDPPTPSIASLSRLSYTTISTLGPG
Description: their selectivity for the CCK2 receptor;
as §1

gastric emptying = gastric emptying of a charcoal meal in the mouse, oral route; format: in vivo, Female Swiss albino CD1 mice; conditions: p.o., 60 minutes before charcoal meal, read-out: ED50 inhibition of gastric emptying
Description: their agonist effect by the oral route on gastric drainage in the mouse.
An in vivo study of the agonist effect of the compounds on gastric emptying was carried out as follows. Female Swiss albino CD1 mice (20-25 g) are placed on a solid fast for 18 hours. On the day of the experiment, the products are administered orally 60 minutes before the administration of a charcoal meal (0.3 ml per mouse of a suspension in water of 10% charcoal powder, 5% gum arabic and 1% carboxymethylcellulose). The mice are sacrificed 5 minutes later by cervical dislocation, and the gastric emptying is defined as the presence of charcoal in the intestine beyond the pyloric sphincter (Europ. J. Pharmacol., 1993, 232, 13-19).

CCNCC.COc1cc(-c2nc(NC(=O)c3cc4c(C)c(C)c(OC)cc4n3CCC(=O)O)nn2CCC2CCCCC2)c(OC)cc1C
melting point: 143 °C (dec.)

COc1cc(-c2nc(NC(=O)c3cc4c(C)c(C)c(OC)cc4n3CCC(=O)[O-])nn2CCC2CCCCC2)c(OC)cc1C.[K+] [Example 1, 3-[2-[[[1-(2-cyclohexylethyl)-5-(2,5-dimethoxy-4-methylphenyl)-1H-1,2,4-triazol-3-yl]amino]carbonyl]-6-methoxy-4,5-dimethyl-1H-indol-1-yl]propionic acid, Potassium Salt]
IC50 (human CCK1 receptor; human CCK1 receptor, read-out: IC50 (affinity, human CCK1 receptor)): 0.4 nM
selectivity (affinity CCK1 receptor versus affinity of CCK2 receptor) (human CCK1 receptor; human CCK1 versus human CCK2): > 500 fold
EC50 [1]: ~1 nM
IC50 (human CCK2 receptor): 234 nM

COc1cc(-c2nc(NC(=O)c3cc4c(C)c(C)c(OC)cc4n3CCC(=O)O)nn2CCC2CCCCC2)c(OC)cc1C.NCCO [Example 3, 3-[2-[[[1-(2-cyclohexylethyl)-5-(2,5-dimethoxy-4-methylphenyl)-1H-1,2,4-triazol-3-yl]amino]carbonyl]-6-methoxy-4,5-dimethyl-1H-indol-1-yl]propionic acid ethanolamine salt]
ED50 (gastric emptying): 0.027 mg/kg
